Among the test systems are UO-31 renal; MOLT-4 leukemia; HOP-62 NSCLC; PC-3 prostate; CAKI-1 renal; SR leukemia; OVCAR-3 ovarian; A549 NSCLC; IGROV1 ovarian; OVCAR-4 ovarian.
Common to all, as to assay: NCI-60 cell line screen, 48 h

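Values below derive from 48-hour exposures of cells grown in 96-well plates, with endpoints linearly interpolated between the two concentrations bracketing the appropriate inhibition level. GI50 marks 50% less growth. At the TGI there is no net growth.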 Bounds are passed on as bounds.

Consider `CCCCCCc1cc2cc(-c3csc(/C=C/c4ccccc4)n3)c(=O)oc2cc1O`, for which the GI50 is 15.7 µM in the experiment on UO-31 renal; 3.72 µM in the experiment on MOLT-4 leukemia; 7.16 µM with HOP-62 NSCLC; 5.39 µM with PC-3 prostate; 19 µM with CAKI-1 renal; 2.88 µM with SR leukemia. Besides, the GI50 in the experiment with OVCAR-3 ovarian is 3.52 µM; in the experiment on A549 NSCLC, 4.27 µM; in the experiment with IGROV1 ovarian it was 15.9 µM; with OVCAR-4 ovarian it was 3.56 µM. For the same compound, the TGI with UO-31 renal was greater than 100 µM; in the experiment with MOLT-4 leukemia, 15.1 µM; with HOP-62 NSCLC it was 21.4 µM; in the experiment on PC-3 prostate it was 34.4 µM; with CAKI-1 renal, 48.5 µM; in the experiment on SR leukemia it was 9.69 µM. Also, the TGI came out at 9.98 µM with OVCAR-3 ovarian, 19 µM with A549 NSCLC, 38.3 µM in the experiment with IGROV1 ovarian and 13.7 µM with OVCAR-4 ovarian.
On to `FC(F)(F)c1ccc(-c2ncc(-c3ccc(C(F)(F)F)cc3)c(NCc3cc(C(F)(F)F)cc(C(F)(F)F)c3)n2)cc1`, for which the GI50 is 2.94 µM in the experiment on UO-31 renal; 4.35 µM in the experiment with MOLT-4 leukemia; 5.16 µM in the experiment with HOP-62 NSCLC; 3.09 µM in the experiment with PC-3 prostate; 3.36 µM in the experiment with CAKI-1 renal; 5.07 µM in the experiment with SR leukemia. The GI50 is 3.39 µM in the experiment with OVCAR-3 ovarian, 4.05 µM with A549 NSCLC, 9.02 µM in the experiment on IGROV1 ovarian and 4.11 µM with OVCAR-4 ovarian. The TGI is 36.6 µM in the experiment with UO-31 renal; 71.8 µM in the experiment with MOLT-4 leukemia; greater than 100 µM with HOP-62 NSCLC; 18.3 µM with PC-3 prostate; 28 µM in the experiment on CAKI-1 renal; greater than 100 µM in the experiment with SR leukemia. Further, the TGI was 16 µM with OVCAR-3 ovarian, greater than 100 µM in the experiment on A549 NSCLC, greater than 100 µM in the experiment with IGROV1 ovarian and greater than 100 µM in the experiment on OVCAR-4 ovarian.
As for `O=C1c2cccnc2C(=O)c2c1c(C(=O)OCCc1ccccn1)c1ccccn21`, the GI50 with UO-31 renal is less than 0.0117 µM; in the experiment with MOLT-4 leukemia it was 1.09 µM; in the experiment with HOP-62 NSCLC, less than 0.01 µM; in the experiment with PC-3 prostate it was 0.0563 µM; in the experiment on CAKI-1 renal it was 0.039 µM; in the experiment on SR leukemia, less than 0.01 µM. Besides, the GI50 with OVCAR-3 ovarian was 0.0305 µM; in the experiment on A549 NSCLC it was 0.248 µM; in the experiment on IGROV1 ovarian, 0.0421 µM; in the experiment on OVCAR-4 ovarian it was 1.13 µM. Further, the TGI in the experiment on UO-31 renal was 0.387 µM; with MOLT-4 leukemia, greater than 36.7 µM; in the experiment with HOP-62 NSCLC it was 0.326 µM; in the experiment on PC-3 prostate it was 6.57 µM; in the experiment on CAKI-1 renal, 11.3 µM; in the experiment with SR leukemia, greater than 100 µM. For the same compound, the TGI is 1.45 µM in the experiment on OVCAR-3 ovarian, 1.56 µM in the experiment with A549 NSCLC, 4.73 µM in the experiment with IGROV1 ovarian and 8.39 µM in the experiment with OVCAR-4 ovarian.
With `O=C(NS(=O)(=O)c1ccc(NC[C@H]2COCCO2)c([N+](=O)[O-])c1)c1ccc(N2CCN(CC3=C(c4ccc(Cl)cc4)CC4(CCC4)CC3)CC2)cc1Oc1cnc2[nH]ccc2c1`, the GI50 in the experiment on UO-31 renal was 1.69 µM; in the experiment on MOLT-4 leukemia, 1.36 µM; with HOP-62 NSCLC, 1.79 µM; in the experiment with PC-3 prostate, 2.43 µM; in the experiment with CAKI-1 renal, 1.8 µM; in the experiment with SR leukemia it was 1.82 µM. Further, the GI50 is 1.82 µM with OVCAR-3 ovarian, 3.08 µM in the experiment with A549 NSCLC, 1.93 µM in the experiment on IGROV1 ovarian and 2.47 µM in the experiment with OVCAR-4 ovarian. The TGI in the experiment with UO-31 renal was found to be 3.52 µM; with MOLT-4 leukemia, 5.22 µM; in the experiment with HOP-62 NSCLC, 3.71 µM; with PC-3 prostate, 13.5 µM; in the experiment with CAKI-1 renal, 5.11 µM; with SR leukemia it was 5.31 µM. The TGI in the experiment with OVCAR-3 ovarian was determined as 3.7 µM; with A549 NSCLC, 14.2 µM; in the experiment on IGROV1 ovarian, 3.91 µM; in the experiment with OVCAR-4 ovarian, 9.81 µM.
`NS(=O)(=O)c1ccc(N=C2C(=O)Nc3ccccc32)cc1`: the TGI with UO-31 renal, in the experiment on MOLT-4 leukemia, in the experiment with HOP-62 NSCLC, with PC-3 prostate, in the experiment with CAKI-1 renal and in the experiment with SR leukemia was greater than 100 µM in each case. Also, the TGI with OVCAR-3 ovarian, in the experiment with A549 NSCLC, in the experiment on IGROV1 ovarian and in the experiment on OVCAR-4 ovarian was greater than 100 µM each time.
`COc1ccc(/C=C/C(=O)c2ccc(Nc3nc(Nc4ccc(F)cc4)nc(Nc4ccc(Cl)cc4)n3)cc2)cc1`: the GI50 is 56.9 µM in the experiment on UO-31 renal; 11.9 µM in the experiment on MOLT-4 leukemia; greater than 100 µM in the experiment with HOP-62 NSCLC; 30.6 µM in the experiment with PC-3 prostate; 69.6 µM with CAKI-1 renal; 4.68 µM in the experiment on SR leukemia. In addition, the GI50 is greater than 100 µM in the experiment on OVCAR-3 ovarian, greater than 100 µM with A549 NSCLC, 17.7 µM with IGROV1 ovarian and greater than 100 µM in the experiment on OVCAR-4 ovarian. Further, the TGI in the experiment on UO-31 renal is greater than 100 µM; in the experiment with MOLT-4 leukemia it was greater than 100 µM; in the experiment on HOP-62 NSCLC, greater than 100 µM; in the experiment on PC-3 prostate, greater than 100 µM; in the experiment on CAKI-1 renal, greater than 100 µM; with SR leukemia it was 38.2 µM. Besides, the TGI in the experiment on OVCAR-3 ovarian, in the experiment with A549 NSCLC, in the experiment on IGROV1 ovarian and in the experiment with OVCAR-4 ovarian was greater than 100 µM in each case.
On to `O=C(c1cccs1)c1nc2cc(Cl)ccc2[n+]([O-])c1C(F)(F)F`, for which the GI50 in the experiment on UO-31 renal was greater than 100 µM; in the experiment on MOLT-4 leukemia, 70.1 µM; with HOP-62 NSCLC, greater than 100 µM; in the experiment on PC-3 prostate it was 71.4 µM; in the experiment on CAKI-1 renal, greater than 100 µM; in the experiment with SR leukemia it was 35.4 µM. In addition, the GI50 was greater than 100 µM in the experiment on OVCAR-3 ovarian, 54.8 µM with A549 NSCLC, greater than 100 µM in the experiment on IGROV1 ovarian and greater than 100 µM with OVCAR-4 ovarian. For the same compound, the TGI with UO-31 renal, in the experiment with MOLT-4 leukemia, with HOP-62 NSCLC, with PC-3 prostate, in the experiment with CAKI-1 renal and in the experiment on SR leukemia was greater than 100 µM each time. Besides, the TGI in the experiment on OVCAR-3 ovarian, with A549 NSCLC, in the experiment on IGROV1 ovarian and in the experiment on OVCAR-4 ovarian was greater than 100 µM in each case.
With `CCOc1cc(/C=C/C(=O)C(C(=O)/C=C/c2ccc(OC(=O)CNc3nnc(C)s3)c(OCC)c2)C(=O)CNc2nnc(C)s2)ccc1OC(=O)CNc1nnc(C)s1`, the GI50 is 1.41 µM in the experiment on UO-31 renal; 0.681 µM in the experiment with MOLT-4 leukemia; 3.52 µM in the experiment on HOP-62 NSCLC; 1.51 µM in the experiment with PC-3 prostate; 2.8 µM with CAKI-1 renal; 0.236 µM in the experiment on SR leukemia. The GI50 in the experiment with OVCAR-3 ovarian was 1.24 µM; in the experiment with A549 NSCLC, 2.36 µM; in the experiment on OVCAR-4 ovarian it was 3.91 µM. The TGI is 7.81 µM with UO-31 renal; 6.56 µM with MOLT-4 leukemia; 11.8 µM in the experiment with HOP-62 NSCLC; 15.6 µM in the experiment on PC-3 prostate; greater than 29 µM in the experiment on CAKI-1 renal; 1.45 µM in the experiment with SR leukemia. Also, the TGI in the experiment on OVCAR-3 ovarian is 4.85 µM; in the experiment on A549 NSCLC, 7.44 µM; in the experiment with OVCAR-4 ovarian it was 45.1 µM.
Take `CN(CSc1ccc(Cl)cc1)c1ccc(CSc2ccc(Cl)cc2)cc1`: the GI50 in the experiment on UO-31 renal is 1.06 µM; with MOLT-4 leukemia, 2.66 µM; with HOP-62 NSCLC, 13.6 µM; in the experiment on PC-3 prostate it was 3.27 µM; in the experiment with CAKI-1 renal it was 2.32 µM; in the experiment with SR leukemia, 1.77 µM. Also, the GI50 in the experiment on OVCAR-3 ovarian was 1.97 µM; with A549 NSCLC, 5.22 µM; in the experiment with OVCAR-4 ovarian, 3.15 µM. Moreover, the TGI in the experiment on UO-31 renal was 4.18 µM; with MOLT-4 leukemia, greater than 100 µM; in the experiment with HOP-62 NSCLC, 29.9 µM; in the experiment on PC-3 prostate, 25.8 µM; in the experiment on CAKI-1 renal, 8.64 µM; in the experiment on SR leukemia it was 7.58 µM. Moreover, the TGI came out at 5.17 µM in the experiment on OVCAR-3 ovarian, 34.4 µM in the experiment on A549 NSCLC and 20 µM in the experiment on OVCAR-4 ovarian.
`O=C(O)CNCCc1ccccc1`: the TGI in the experiment with UO-31 renal, with HOP-62 NSCLC, in the experiment on PC-3 prostate, with CAKI-1 renal, in the experiment on SR leukemia and in the experiment on OVCAR-3 ovarian was greater than 100 µM in each case. Also, the TGI with A549 NSCLC, in the experiment on IGROV1 ovarian and in the experiment with OVCAR-4 ovarian was greater than 100 µM each time.
With `C/C(=N\O)c1cccc(Nc2cc(-c3ccccc3)nc3c(O)cccc23)c1`, the GI50 in the experiment on UO-31 renal was 11.2 µM; with HOP-62 NSCLC it was 3.09 µM; with PC-3 prostate, 1.94 µM; in the experiment on CAKI-1 renal it was 2.78 µM; in the experiment on SR leukemia, 0.415 µM; with OVCAR-3 ovarian it was 1.1 µM. For the same compound, the GI50 with A549 NSCLC is 2.37 µM; in the experiment with IGROV1 ovarian, 2.41 µM; in the experiment on OVCAR-4 ovarian, 8.19 µM. Moreover, the TGI is 30.4 µM with UO-31 renal; 15 µM in the experiment with HOP-62 NSCLC; 19.9 µM in the experiment on PC-3 prostate; greater than 37.3 µM in the experiment with CAKI-1 renal; 14.5 µM in the experiment on OVCAR-3 ovarian; 23.5 µM in the experiment with A549 NSCLC. Moreover, the TGI with IGROV1 ovarian worked out at 18 µM; in the experiment on OVCAR-4 ovarian, 37.4 µM.

These data come from PubChem BioAssay (NCI).
